# Laboratory results from US5856189A, “Cell culture model for drug bioavailability” (priority 1997, dated 1999).
# Experiments:
# [1] = target: CYP3A (Caco-2 cells) (Homo sapiens, UniProt P08684); settings: serum-free; 4 μM MDZ apical, 6.5 h; FIG. 9
# Description: Standards were also prepared in duplicate. Known amounts of MDZ and 1'-OH-MDZ (1-50 ng) were combined with 100 mM potassium phosphate buffer, pH 7.4.
# Unknowns and standards were extracted with 5 mL ethyl acetate and the upper organic layer transferred to clean tubes. The solvent was evaporated to dryness under a stream of nitrogen. The remaining solvent was reconstituted in 100 μL derivatizing reagent (10% N-methyl-N-(t-butyldimethylsilyl)trifluoroacetamide in acetonitrile).
# At the end of this period, the medium was replaced with medium not containing vitamin D (except that contributed by the 5% FBS). Next, 4 μM MDZ was added to the apical (luminal) or basolateral (serosal) medium of the cells.
# Parent drug and metabolite concentrations measured at 1 and 2 hours after MDZ administration were used for computation. The amount of 1'-OH-MDZ formed during this interval was determined as the sum of metabolite in the apical and basolateral compartments at 2 hours minus the total amount measured at 1 hour.
# Because the incubation medium contained significant amounts of FBS, the fraction of MDZ bound to culture medium proteins was measured by equilibrium dialysis. […] The unbound concentration of MDZ in the apical and basolateral compartments during cell culture was calculated as the product of the experimentally determined MDZ-free fraction and total MDZ concentration. Since MDZ concentrations in the apical and basolateral compartments were not at equilibrium during the 1-2 hour MDZ incubation interval, the intracellular reaction was assumed to be driven by a MDZ concentration that was more closely aligned with the concentration in the basolateral compartment.
# At the end of this period, the medium was replaced with medium containing neither serum nor vitamin D. Next, MDZ (4 μM) was added to the apical compartment.
# [2] = test system: Caco-2 cells; test: Glucuronidation of 1'-OH-MDZ in Caco-2 cells; settings: 2-24 h with 4 μM MDZ; β-glucuronidase
# Description: The experiments of this example assess whether glucuronidation occurs in the culture system of the present invention. […] Each of a complete set of parallel 0.5 mL samples was diluted to a volume of 1 mL and spiked with 20 ng 1'-[^2 H2 ],1'-OH-MDZ (no glucuronidase treatment).
# [3] = test system: Caco-2 cells; test: Apical/basolateral distribution of midazolam and metabolite across Caco-2 monolayers; settings: every time point, also after basolateral MDZ
# Description: At the end of this period, the medium was replaced with medium not containing vitamin D (except that contributed by the 5% FBS).
# [4] = test system: CYP3A4 mRNA (Caco-2 cells)
# Description: Harvesting for mRNA Analyses and RNA Isolation
# The medium was aspirated and the culture inserts were washed three times with Hanks' BSS containing 15 mM HEPES. […] After 5 minutes, the cell lysate was transferred to a microcentrifuge tube and kept at -80° C. pending further processing. At a later time, the lysate was thawed quickly at 65° C., and total RNA was isolated according to the protocol of P. Chomczynski and N. Sacchi. Briefly, extraction was performed using the denaturing solution, 2M sodium acetate (pH 4), phenol, and chloroform (1:0.1:1:0.2). Next, precipitation was effected with 2 volumes of ethanol. Resolubilization and reprecipitation was then performed using the denaturing solution and 2 volumes of ethanol. […] The reagent volumes were adjusted proportionately as appropriate for the initial lysate volume.
# (§1) cDNA was prepared from the total RNA using reverse transcriptase from avian myeloblastosis virus (Seikagaku America). […] The polymerase chain reaction was performed on 1 μL of a 1:10 dilution in water of a prepared cDNA.
# Each thermal cycle consisted of 95° C. for 1 min, then 65° C. for 1 min 15 sec; after completing all cycles, a 10 min extension step at 65° C. was performed. The number of cycles performed in each PCR reaction is set forth below in the Examples.
# (§2) PCR products were electrophoresed on agarose gels and stained with ethidium bromide. […] PCR products were judged to be of the size appropriate for amplification of the specific cDNA by comparison with molecular weight standards included on each gel.
# An internal standard for quantitative competitive PCR of CYP3A4 cDNA was prepared by inserting a 30 base pair segment into the cDNA sequence to be amplified. PCR reaction mixtures were prepared by combining serial dilutions of a known amount of the standard cDNA and constant amounts of the unknown cDNA. The two cDNAs were amplified together and the products were separated on agarose gels. After staining with ethidium bromide, the two bands were quantitated densitometrically. An equivalence point (at which the densities of the standard and unknown bands are of equal optical density) was determined; the concentration of the unknown is equal to that of the standard at the point of equivalence.
# The cells from all experiments were maintained in their respective differentiation media for two weeks post-confluence. Thereafter, the cells were used for midazolam metabolism studies and/or harvested for analysis of protein or mRNA (described below).
# (§3) The numbers of PCR cycles were as follows: CYP3A4, 36; CYP3A5, 33; CYP3A7, 39; mdr-1, 34; IFABP, 32; and villin, 27.
# (§4) At that time, the medium was replaced with medium without vitamin D (except that contributed by the 5% FBS. Total RNA was then prepared as described above and subjected to RT-PCR using synthetic oligonucleotide primer pairs designed to selectively amplify fragments of the CYP3A4 and villin cDNAs (see Table 3). The numbers of PCR cycles were as follows: CYP3A4, 36; and villin, 27. Moreover, immunoblots were performed as described above for CYP3A, NADPH cytochrome P450 reductase, P-glycoprotein, and villin. The protein loads used for the immunoblot procedures were as follows: 5 μg for CYP3A, P-glycoprotein, villin; and 40 ,μg for NADPH cytochrome P450 reductase.
# [5] = test system: Caco-2 cells; settings: cited from earlier work
# [6] = test system: CYP3A (Caco-2 cells)
# Description: At the end of that period, the medium was replaced with medium not containing vitamin D (except that contributed by the 5% FBS). […] After 6 hours, the apical and basolateral media were removed separately and analyzed for 1'-OH-MDZ concentration.
# As previously indicated, the medium was aspirated and the inserts were washed three times with Hanks'BSS. […] After 6 hours, the amount of 1'-OH-MDZ was measured in the combined luminal plus basolateral medium from each culture and the rate of formation calculated.
# For the experiments of this example, all cells (Caco-2 cell clones and the parent cell line) were grown on Matrigel-coated teflon culture inserts. […] At the end of this period, the medium was replaced with medium not containing vitamin D (except that contributed by the 5% FBS). Next, MDZ (4 μM) was added to the apical compartment. […] Catalytic activity and levels of protein expression were determined as previously described.
# Catalytic activity and levels of protein expression were determined as previously described.
# [7] = test system: CYP3A (Caco-2 cells); test: Immunoblot of CYP3A immunoreactive protein in treated Caco-2 cells; settings: for CYP3A4 expression at the highest concentrations used: FIGS. 2C and 3
# Description: The medium was aspirated and the inserts were washed three times with Hanks' BSS containing 15 mM HEPES. Cells grown on Matrigel- (or Growth Factor Reduced Matrigel-) coated inserts were removed from the membranes using Dispase according to the manufacturer's protocol. Thereafter, 5 mM EDTA in normal saline containing 1 mM PMSF and 1 mM benzamidine was added to inhibit further digestion. The cell suspension was transferred to a microcentrifuge tube and pelleted by centrifugation at 325 g. The pellets were washed three times with Hanks' BSS containing 15 mM HEPES, 1 mM PMSF, and 1 mM benzamidine. The final pellet was resuspended in a solution of 20% v/v glycerol, 100 mM Tris HCl (pH 7.4), 10 mM EDTA, 1 mM dithiothreitol, I mM PMSF, 1 mM benzamidine, and 100 μg/mL aprotinin and homogenized in a conical ground glass tissue grinder with 20 passes of a ground glass pestle. The homogenate was subjected to 10 seconds of sonication and was then kept at -80° C. until analysis.
# Cells grown on uncoated inserts or inserts coated with non-Matrigel matrices were harvested by scraping into Hanks' BSS containing HEPES and protease inhibitors, washed three times, and then homogenized, sonicated, and frozen as described above.
# (§5) The homogenates were electrophoresed in polyacrylamide gels containing 0.1% SDS, and the separated proteins were electrophoretically transferred to nitrocellulose. Nonspecific binding sites were blocked using 0.3% Tween 20 and 5% nonfat dry milk (Carnation) in Tris buffered saline.
# CYP1A1 was detected using a polyclonal goat antibody (Gentest) developed against rat CYP1A1 and CYP1A2. […] CYP3A proteins were detected using a mouse monoclonal antibody ("13-7-10") obtained from Dr. Pierre Kremers (Universite de Liege, Liege, Belgium). […] This antibody detects all known forms of human CYP3A.
# (§6) Secondary antibodies of appropriate specificities conjugated with horseradish peroxidase were obtained commercially (rabbit anti-mouse IgG and goat anti-rabbit IgG/A/M from Zymed and mouse anti-goat IgG/A/M from Pierce). Binding of secondary antibodies was detected using the enhanced chemiluminescence (ECL™) reagents and film from Amersham.
# In some cases, immunoblot protein concentrations were determined by computer-aided densitometry. When this procedure was conducted, optical densities were performed on a Macintosh (Apple) computer using the publicly available NIH Image program (developed at the U.S. National Institutes of Health and available on the Internet at http://rsb.info.nih.gov/nih-image/). Individual exposures were scanned into binary images with a ScanJetIIc color scanner (Hewlett-Packard). An optical density-concentration standard curve was prepared using the bands from second loaded serial dilutions of purified CYP3A4 protein, and the optical densities of unknowns were converted to quantitative numbers by comparison to this curve. This allowed for correction of the nonlinearity of ECL light output and ECL Hyperfilm.
# [8] = test system: CYP1A1; test: Immunoblot of CYP1A1 protein in Caco-2 cells; format: cell-based, human; settings: two weeks treatment, varying concentrations
# [9] = test system: P-glycoprotein; test: Immunoblot of P-glycoprotein in Caco-2 cells; format: cell-based, human
# Description: as §5
# (§7) P-glycoprotein was detected using a polyclonal rabbit antibody (Oncogene Science), and villin was detected using a mouse monoclonal antibody (Chemicon International).
# as §6
# (§8) Cell homogenates were then prepared as described above and immunoblots were performed; the Caco-2 protein loads were as follows: 10 ,μg for CYP3A, CYP3A5, P-glycoprotein, villin; 25 pg for CYP1A1, CYP2D6; 40 μg for IFABP, LFABP; 80 μg for NADPH cytochrome P450 reductase, cytochrome b5 (the villin, IFABP, and LFABP served as control proteins).
# [10] = test system: NADPH cytochrome P450 reductase; test: Immunoblot of NADPH cytochrome P450 reductase in Caco-2 cells; settings: for concentrations at which NADPH cytochrome P450 reductase level increased: two weeks treatment
# Description: as §5, §6, §8, §4
# [11] = test system: villin; test: Immunoblot of villin in Caco-2 cells; format: cell-based, human; settings: for villin expression at the highest concentrations used: FIG. 3
# Description: as §5, §7, §6, §8
# [12] = test system: CYP3A5; test: Immunoblot of CYP3A5 protein in Caco-2 cells; format: cell-based, human; settings: two weeks treatment, varying concentrations
# Description: CYP3A5 was detected using an immunoadsorbed polyclonal rabbit antibody obtained from Dr. Steven A. Wrighton (Eli Lilly). The antibody may be generated by injecting rabbits subcutaneously with 100 μg of P450IIIA5 in 0.75 mL of phosphate-buffered saline in an emulsion made with 1.25 mL of Freund's complete adjuvant. Four weeks later, 50 μg of P450IIIA5 (in the same preparation) is injected. Finally, eight weeks from the initial injection, 50 μg of […] in 300 μL of phosphate-buffered saline is injected intravenously into the rabbits' ear vein. Serum was obtained 10 weeks following the initial immunization and weekly thereafter. The IgG fraction was then isolated and antibodies specific to CYP3A5 were isolated by adsorption of contaminating antibodies to sepharose-bound CYP3A4 [S. A. Wrighton et al., Mol. Pharmacol. 38:207-213 (1990).
# [13] = test system: IFABP; test: Immunoblot of IFABP in Caco-2 cells; format: cell-based, human; settings: two weeks treatment, varying concentrations
# Description: as §5, §7, §6, §8
# [14] = test system: cytochrome b5; test: Immunoblot of cytochrome b5 in Caco-2 cells; format: cell-based, human; settings: two weeks treatment, varying concentrations
# Description: as §5, §6, §8
# [15] = test system: LFABP; test: Immunoblot of LFABP in Caco-2 cells; format: cell-based, human; settings: two weeks treatment, varying concentrations
# Description: as §5, §7, §6, §8
# [16] = test system: CYP2D6; settings: two weeks treatment, varying concentrations
# Description: as §5
# CYP2D6 was detected using a polyclonal rabbit antibody developed against unique antigenic peptides and was obtained from Dr. Alastair Cribb (Merck Research Laboratories, West Point, Pa.).
# as §6
# [17] = test system: CYP3A5 mRNA (Caco-2 cells); test: RT-PCR of CYP3A5 mRNA in treated Caco-2 cells; settings: 0.05-1.0 μM, two weeks
# Description: as §1
# (§9) Each thermal cycle consisted of 95° C. for 1 min, then 65° C. for 1 min 15 sec; after completing all cycles, a 10 min extension step at 65° C. was performed.
# as §2, §3
# [18] = test system: CYP3A3 mRNA (Caco-2 cells); test: RT-PCR of CYP3A3 mRNA in treated Caco-2 cells; format: cell-based, human; settings: treated or untreated Caco-2 cells
# Description: Primer sequences for amplification of CYP3A3, CYP3A4, CYP3A5, and
# These are the same primer sequences previously used by J. C. Kolars et al. [Pharmacogenetics 4:247-259 (1994)], except that a different antisense primer (SEQ ID NO:9) was used for CYP3A5, and the first sense primer for CYP3A3 was paired with the second antisense primer used by Kolars et al. (i.e., in the present invention, SEQ ID NO:1 was paired with SEQ ID NO:2).
# [19] = test system: CYP3A7 mRNA (Caco-2 cells); test: RT-PCR of CYP3A7 mRNA in treated Caco-2 cells; settings: 0.05-1.0 μM, two weeks
# Description: as §1, §9, §2, §3
# [20] = two weeks treatment from confluence, 4 μM MDZ apical, 6 h, FIG. 2A
# Chain of CYP3A (Caco-2 cells) (Homo sapiens, UniProt P08684) (P08684 2-503): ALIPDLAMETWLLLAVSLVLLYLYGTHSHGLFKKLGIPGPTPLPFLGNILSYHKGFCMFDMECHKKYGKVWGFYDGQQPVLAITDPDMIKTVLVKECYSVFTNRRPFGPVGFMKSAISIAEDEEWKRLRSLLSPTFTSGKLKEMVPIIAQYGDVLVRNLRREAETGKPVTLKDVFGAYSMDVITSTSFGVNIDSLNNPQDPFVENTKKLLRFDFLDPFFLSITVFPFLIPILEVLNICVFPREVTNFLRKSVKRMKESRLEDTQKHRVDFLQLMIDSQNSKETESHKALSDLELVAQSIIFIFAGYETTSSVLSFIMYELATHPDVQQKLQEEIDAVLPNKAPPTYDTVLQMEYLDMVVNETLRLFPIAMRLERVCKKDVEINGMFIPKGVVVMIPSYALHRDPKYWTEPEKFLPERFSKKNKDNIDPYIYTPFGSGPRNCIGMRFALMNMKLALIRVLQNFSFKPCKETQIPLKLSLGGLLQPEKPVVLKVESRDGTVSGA
compound,measurement,setting,value
"OCc1ncc2n1-c1ccc(Cl)cc1C(c1ccccc1F)=NC2 [1'-OH-MDZ, 1'-hydroxymidazolam]",rate of 1'-OH-MDZ formation under serum-free incubation,[1],decreased compared to that measured in the presence of serum
same,"rate of 1'-OH-MDZ formation, luminal vs basolateral medium",[1],greater in the luminal medium than in the basolateral medium
same,glucuronidation of 1'-OH-MDZ,[2],had not occurred
same,"1'-OH-MDZ concentration, apical vs basolateral",[3],greater in the apical medium than in the basolateral medium
CCCC(=O)[O-].[Na+] [sodium butyrate],enhancement of CYP3A4 mRNA expression,[4],did not appear to enhance CYP3A4 mRNA expression
"C=C1CC[C@H](O)C/C1=C/C=C1\CCC[C@]2(C)[C@@H]([C@H](C)CCCC(C)C)CC[C@@H]12 [D3, cholecalciferol]",Caco-2 cell growth,[5]; Giuliano et al.,decrease in cell growth
same,Caco-2 cell proliferation,[5]; Halline et al.,dose-dependent inhibition of cell proliferation
same,effect on midazolam metabolism,"[6]; up to 1.0 μM, two weeks",no effect
same,effect on immunoreactive CYP3A protein,"[7]; up to 1.0 μM, two weeks",no effect
"C=C1CC[C@H](O)C/C1=C/C=C1\CCC[C@]2(C)[C@@H]([C@H](C)/C=C/[C@H](C)C(C)C)CC[C@@H]12 [vitamin D2, ergocalciferol]",enhancement of CYP3A4 mRNA expression,[4],did not appear to enhance CYP3A4 mRNA expression
"CC1(S(=O)(=O)O)CC(=O)c2ccccc2C1=O (stereo not shown) [vitamin K, menadione sodium bisulfite]",enhancement of CYP3A4 mRNA expression,[4],did not appear to enhance CYP3A4 mRNA expression
"C=C1CC[C@H](O)C/C1=C/C=C1\CCC[C@]2(C)[C@@H]([C@H](C)CCCC(C)(C)O)CC[C@@H]12 [25-(OH)-D3, 25-hydroxyvitamin D3]",level of CYP1A1 protein,[8],did not appear to change
same,concentrations at which immunoreactive P-glycoprotein increased,[9]; two weeks treatment,≥ 2.5 µM
same,concentrations at which NADPH cytochrome P450 reductase level increased,[10],≥ 500 nM
same,level of villin immunoreactive protein,"[11]; concentrations ≥10 μM, two weeks, not shown",decrease slightly
same,villin expression at the highest concentrations used,[11],lower levels of expression
same,level of CYP3A5 protein,[12],little change
same,CYP3A catalytic activity at 15 μM,"[6]; 15 μM, relative to maximum at 5 μM, FIG. 2B",substantially declined
same,CYP3A catalytic activity at 20 μM,"[6]; 20 μM, FIG. 2B",declining still further
same,maximal CYP3A catalytic activity achieved,"[6]; relative to 1α,25-(OH)2 -D3","not as great as that achieved with 1α,25-(OH)2 -D3"
same,concentration at which increase in CYP3A catalytic activity was evident / began,[6]; [20],250 nM
same,concentration at which CYP3A catalytic activity plateaued,"[6]; two weeks treatment from confluence, FIG. 2A",> 1000 nM
same,concentration of maximal CYP3A catalytic activity,"[6]; two weeks treatment, FIG. 2B",5000 nM
same,level of IFABP protein,[13],Neither of the FABPs showed changes in levels of expression
same,level of cytochrome b5 immunoreactive protein,[14],did not appear to change
same,level of LFABP protein,[15],Neither of the FABPs showed changes in levels of expression
same,CYP3A4 expression at the highest concentrations used,[7],lower levels of expression
same,concentration at which CYP3A immunoreactive protein plateaued,"[7]; two weeks treatment, FIG. 2C",> 1000 nM
same,concentration at which increase in CYP3A immunoreactive protein was evident / began,"[7]; two weeks treatment, FIG. 2C",250 nM
same,level of CYP2D6 protein,[16],did not appear to change
"C=C1/C(=C\C=C2/CCC[C@]3(C)[C@@H]([C@H](C)CCCC(C)(C)O)CC[C@@H]23)C[C@@H](O)C[C@@H]1O [1α,25-(OH)2 -D3, 1α,25-dihydroxyvitamin D3]",CYP3A5 mRNA expression,[17],"appeared to increase in response to 1α,25-(OH)2 -D3, but to a much lesser degree"
same,CYP3A3 mRNA,[18],not detected
same,level of CYP1A1 protein,[8],did not appear to change
same,exposure time until P-glycoprotein increased,"[9]; 0.25 μM, FIG. 5A",about 72 hours
same,NADPH cytochrome P450 reductase expression among clones and parent line,[10]; 0.25 μM two weeks,variable responsiveness
same,exposure time until NADPH cytochrome P450 reductase increased,"[10]; 0.25 μM, FIG. 5A",168 h
same,concentrations at which NADPH cytochrome P450 reductase level increased,[10],≥ 50 nM
same,villin expression at the highest concentrations used,[11],lower levels of expression
same,level of CYP3A5 protein,[12],little change
same,"CYP3A catalytic activity, clones and parent line","[6]; 0.25 μM two weeks, clones 4-8 and parent, untreated below limits of quantitation",demonstrably greater catalytic activity than the untreated cells
same,exposure time until midazolam metabolism first detectable,"[6]; 0.25 μM, 4 μM MDZ apical, 6 h, FIG. 5B",12 h
same,difference in CYP3A catalytic activity among culture media,"[6]; 5% FBS media with 0.25 μM 1α,25-(OH)2 -D3",less than 4 fold
same,CYP3A protein and catalytic activity without Matrigel,"[6]; M-, D+, 0.25 μM",increased CYP3A protein and catalytic activity in the absence of Matrigel
same,extent of midazolam metabolism,"[6]; apical concentrations, FIG. 2A",dramatic increase in the extent of midazolam metabolism
same,correlation (R) of midazolam 1'-hydroxylation activity with CYP3A immunoreactive protein,"[6]; clones and parent with and without treatment, p=0.0003",0.987
same,concentration at which increase in CYP3A catalytic activity was evident / began,[6]; [20],50 nM
same,CYP3A7 mRNA expression,[19],"appeared to increase in response to 1α,25-(OH)2 -D3, but to a much lesser degree"
same,level of LFABP protein,[15],Neither of the FABPs showed changes in levels of expression
same,"CYP3A immunoreactive protein, clones and parent line","[7]; 0.25 μM two weeks, all five clones and parent",increased levels of CYP3A immunoreactive protein
same,exposure time until increased CYP3A protein was evident,"[7]; 0.25 μM, FIG. 5A",18 h
same,CYP3A content by densitometry,"[7]; 0.5 μM, untreated 7.9",20.6 pmol CYP3A/mg of total protein
same,"CYP3A expression in response to 1α,25-(OH)2 -D3 on Matrigel","[7]; M+, D+, 0.25 μM",clearly enhanced when the Caco-2 cells were grown on Matrigel
same,CYP3A4 expression at the highest concentrations used,[7],lower levels of expression
same,concentration at which increase in CYP3A immunoreactive protein was evident / began,"[7]; two weeks treatment, FIG. 2C",50 nM
same,level of CYP2D6 protein,[16],did not appear to change
same,exposure time at which CYP3A4 mRNA appeared to plateau,"[4]; 0.25 μM, FIG. 5A",120 h
same,exposure time until increase in CYP3A4 mRNA was evident,"[4]; 0.25 μM, FIG. 5A",3 to 4 h
same,"CYP3A4 mRNA expression, dose-response","[4]; 0.05-1.00 μM, two weeks from confluence",increased CYP3A4 mRNA expression at all concentrations used
same,expression of CYP3A4 mRNA,"[4]; added to differentiation medium (0.63 μM), two weeks post-confluence, Matrigel-coated Millicell CM inserts",dramatic increase in the expression of CYP3A4 mRNA
"CC(=O)OC/C=C(C)/C=C/C=C(C)/C=C/C1=C(C)CCCC1(C)C [Vitamin A, retinol acetate]",enhancement of CYP3A4 mRNA expression,[4],did not appear to enhance CYP3A4 mRNA expression
NCC(=O)CCC(=O)O [delta-aminolevulinic acid],enhancement of CYP3A4 mRNA expression,[4],did not appear to enhance CYP3A4 mRNA expression
